Test results taken from paper PMC11748363, “Antimicrobial and Antiproliferative Properties of 2‐Phenyl‐N‐(Pyridin‐2‐yl)acetamides” (Chemical Biology & Drug Design, 2025).
Values after ≈ are worked out from the molar mass of the structure shown. Where two headings read alike, the source gives them in different places.

Experiments:
[1] = test system: Candida albicans CCM 8320, ATCC 24433; assay: Antifungal microdilution broth MIC, CA
[2] = test system: Candida krusei CCM 8271, ATCC 6258; assay: Antifungal microdilution broth MIC, CK; conditions: Pichia kudriavzevii
[3] = test system: Klebsiella pneumoniae CCM 4415, ATCC 10031; assay: Antibacterial microdilution broth MIC, KP
[4] = test system: Aspergillus fumigatus ATCC 204305; assay: Antifungal microdilution broth MIC, AF
[5] = test system: Staphylococcus epidermidis CCM 4418, ATCC 12228; assay: Antibacterial microdilution broth MIC, SE; assay type: cell-based
[6] = test system: Pseudomonas aeruginosa CCM 3955, ATCC 27853; assay: Antibacterial microdilution broth MIC, PA; assay type: cell-based
[7] = test system: Aspergillus flavus CCM 8363; assay: Antifungal microdilution broth MIC, AFla
[8] = test system: Mycolicibacterium aurum DSM 43999; assay: Antimycobacterial microdilution broth MIC (resazurin), M. aurum; assay type: cell-based; conditions: DSM43999, read-out: MIC M. aurum
[9] = test system: Trichophyton interdigitale CCM 8377, ATCC 9533; assay: Antifungal microdilution broth MIC, TI; conditions: Trichophyton interdigitale
[10] = test system: Candida tropicalis CCM 8264, ATCC 750; assay: Antifungal microdilution broth MIC, CT
[11] = test system: Mycobacterium tuberculosis H37Ra; assay: Antimycobacterial microdilution broth MIC (resazurin), Mtb H37Ra; assay type: cell-based; conditions: for MIC: Mycobacterium tuberculosis, H37RA, read-out: MIC Mtb H37Ra; for SI (selectivity index): SI = HepG2 IC50 (μM)/MIC MtbH37Ra (μM), calculated for compounds with MIC ≤ 31.25 μg/mL
[12] = test system: Staphylococcus aureus subsp. aureus CCM 4750, ATCC 43300 (MRSA); assay: Antibacterial microdilution broth MIC, MRSA; assay type: cell-based; conditions: Staphylococcus aureus
[13] = test system: Mycolicibacterium smegmatis DSM 43465; assay: Antimycobacterial microdilution broth MIC (resazurin), M. smegmatis; assay type: cell-based; conditions: DSM43465, read-out: MIC M. smegmatis
[14] = test system: Enterococcus faecalis CCM 4224, ATCC 29212; assay: Antibacterial microdilution broth MIC, EF; assay type: cell-based
[15] = test system: Candida parapsilosis CCM 8260, ATCC 22019; assay: Antifungal microdilution broth MIC, CP; conditions: Lodderomyces parapsilosis
[16] = test system: Escherichia coli CCM 3954, ATCC 25922; assay: Antibacterial microdilution broth MIC, EC; assay type: cell-based
[17] = test system: Staphylococcus aureus CCM 4223, ATCC 29213; assay: Antibacterial microdilution broth MIC, SA; assay type: cell-based; conditions: Staphylococcus aureus
[18] = test system: Lichtheimia corymbifera CCM 8077; assay: Antifungal microdilution broth MIC, LC
[19] = test system: Acinetobacter baumannii DSM 30007, ATCC 19606; assay: Antibacterial microdilution broth MIC, ACI; assay type: cell-based
HepG2 cell line = assay: Cytotoxicity CellTiter 96, HepG2; assay type: cell-based, human; conditions: Homo sapiens, HepG2, 24 h, 24 h incubation; ^c compound precipitated in the testing medium; ^d over the limit of tested concentrations
Experimental: The cytotoxicity of final compounds was determined in human hepatocellular carcinoma cell line HepG2.
Cytotoxicity determination
Human hepatocellular liver carcinoma cell line HepG2 purchased from Health Protection Agency Culture Collections (ECACC, Salisbury, UK) was cultured in MEM (Minimum Essentials Eagle Medium, Sigma–Aldrich) supplemented with 10% fetal bovine serum (PAA Laboratories, Pasching, Austria), 1% L-glutamine solution (Sigma–Aldrich) and non-essential amino acid solution (Sigma–Aldrich) in a humidified atmosphere containing 5% CO2 at 37 °C. For subculturing, the cells were harvested after trypsin/EDTA (Sigma–Aldrich) treatment at 37 °C. To evaluate cytotoxicity, the cells treated with the tested substances were used as experimental groups whereas untreated HepG2 cells served as controls. The cells were seeded in density 10,000 cells per well in a 96 well plate. The next day the cells were treated with each of the tested substances dissolved in DMSO. The tested substances were
in triplicates according to their solubility. Simultaneously, the controls representing 100% cell viability, 0% cell viability (the cells treated with 10% DMSO), no cell control and vehiculum controls were also
the reagent from the kit CellTiter 96 AQueous One Solution Cell Proliferation Assay (CellTiter 96; PROMEGA, Fitchburg, USA) was added. After 2h incubation at 37 °C, absorbance of samples was recorded at 490 nm (TECAN, Infinita M200, Austria). A standard toxicological parameter IC50 was calculated by nonlinear regression from a semilogarithmic plot of incubation concentration versus percentage of absorbance relative to untre ated controls using GraphPad Prism 8 software.

[20] = ATCC204305, 24 h, read-out: MIC AF 24h
[21] = ATCC204305, 48 h, read-out: MIC AF 48h
[22] = CCM8363, 24 h, read-out: MIC AFla 24h
[23] = CCM8363, 48 h, read-out: MIC AFla 48h
[24] = CCM8077, 24 h, read-out: MIC LC 24h
[25] = CCM8077, 48 h, read-out: MIC LC 48h

In the case of `O=C(Cc1ccccc1Cl)Nc1cccc(Cl)n1` [Compound 15, 2-(2-chlorophenyl)-N-(6-chloropyridin-2-yl)acetamide], the MIC ([1]; 24 h, read-out: MIC CA 24h) is reported as > 500 µM, the MIC ([1]; 48 h, read-out: MIC CA 48h) is reported as > 500 µM and the MIC ([2]; 24 h, read-out: MIC CK 24h) is reported as 500 µM (≈ 141 µg/mL). For the same molecule, the MIC ([2]; 48 h, read-out: MIC CK 48h) was 500 µM (≈ 141 µg/mL), the “MIC KP 24h” value [3] was > 500 µM and the “MIC KP 48h” value [3] was > 500 µM. For the same molecule, the MIC [4, 20] was > 500 µM, the MIC [4, 21] was > 500 µM and the MIC ([5]; 24 h, read-out: MIC SE 24h) was > 500 µM. The MIC ([5]; 48 h, read-out: MIC SE 48h) was > 500 µM, the MIC ([6]; 24 h, read-out: MIC PA 24h) was > 500 µM and the MIC ([6]; 48 h, read-out: MIC PA 48h) was > 500 µM. For the same molecule, the MIC [7, 22] was > 500 µM, the MIC [7, 23] was > 500 µM and the MIC [8] was 250 µg/mL (≈ 889 µM). For the same molecule, the MIC ([9]; 72 h, read-out: MIC TI 72h) was 500 µM (≈ 141 µg/mL), the MIC ([9]; 120 h, read-out: MIC TI 120h) was 500 µM (≈ 141 µg/mL) and the MIC ([10]; 24 h, read-out: MIC CT 24h) was > 500 µM. For the same molecule, the MIC ([10]; 48 h, read-out: MIC CT 48h) was > 500 µM, the MIC ([11]; Calculated from MIC (μg/mL)) was 111 µM and the MIC [11] was 31.2 µg/mL. The “SI (selectivity index)” value [11] was > 0.9, the MIC ([12]; 24 h, read-out: MIC MRSA 24h) was > 500 µM and the MIC ([12]; 48 h, read-out: MIC MRSA 48h) was > 500 µM. For the same molecule, the MIC [13] was > 500 µg/mL, the MIC ([14]; 24 h, read-out: MIC EF 24h) was > 500 µM and the MIC ([14]; 48 h, read-out: MIC EF 48h) was > 500 µM. For the same molecule, the MIC ([15]; 24 h, read-out: MIC CP 24h) was > 500 µM, the MIC ([15]; 48 h, read-out: MIC CP 48h) was > 500 µM and the MIC ([16]; 24 h, read-out: MIC EC 24h) was > 500 µM. For the same molecule, the MIC ([16]; 48 h, read-out: MIC EC 48h) was > 500 µM, the MIC ([17]; 24 h, read-out: MIC SA 24h) was > 500 µM and the MIC ([17]; 48 h, read-out: MIC SA 48h) was > 500 µM. For the same molecule, the MIC [18, 24] was > 500 µM, the MIC [18, 25] was > 500 µM and the MIC ([19]; 24 h, read-out: MIC ACI 24h) was > 500 µM. For the same molecule, the MIC ([19]; 48 h, read-out: MIC ACI 48h) was > 500 µM and the IC50 (HepG2 cell line) was > 100 µM.
`O=C(Cc1cccc(Cl)c1)Nc1ccccn1` [Compound 16, 2-(3-chlorophenyl)-N-(pyridin-2-yl)acetamide] was tested, and the MIC ([1]; 24 h, read-out: MIC CA 24h) was > 500 µM, the MIC ([1]; 48 h, read-out: MIC CA 48h) was > 500 µM and the MIC ([2]; 24 h, read-out: MIC CK 24h) was > 500 µM. For the same molecule, the MIC ([2]; 48 h, read-out: MIC CK 48h) was > 500 µM, the “MIC KP 24h” value [3] was > 500 µM and the “MIC KP 48h” value [3] was > 500 µM. The MIC [4, 20] was > 500 µM, the MIC [4, 21] was > 500 µM and the MIC ([5]; 24 h, read-out: MIC SE 24h) was 125 µM (≈ 30.8 µg/mL). The MIC ([5]; 48 h, read-out: MIC SE 48h) was 250 µM (≈ 61.7 µg/mL), the MIC ([6]; 24 h, read-out: MIC PA 24h) was > 500 µM and the MIC ([6]; 48 h, read-out: MIC PA 48h) was > 500 µM. For the same molecule, the MIC [7, 22] was > 500 µM, the MIC [7, 23] was > 500 µM and the MIC [8] was 250 µg/mL (≈ 1010 µM). The MIC ([9]; 72 h, read-out: MIC TI 72h) was 500 µM (≈ 123 µg/mL), the MIC ([9]; 120 h, read-out: MIC TI 120h) was 500 µM (≈ 123 µg/mL) and the MIC ([10]; 24 h, read-out: MIC CT 24h) was > 500 µM. The MIC ([10]; 48 h, read-out: MIC CT 48h) was > 500 µM, the MIC ([11]; Calculated from MIC (μg/mL)) was 253 µM and the MIC [11] was 62.5 µg/mL. The MIC ([12]; 24 h, read-out: MIC MRSA 24h) was > 500 µM, the MIC ([12]; 48 h, read-out: MIC MRSA 48h) was > 500 µM and the MIC [13] was > 500 µg/mL. For the same molecule, the MIC ([14]; 24 h, read-out: MIC EF 24h) was > 500 µM, the MIC ([14]; 48 h, read-out: MIC EF 48h) was > 500 µM and the MIC ([15]; 24 h, read-out: MIC CP 24h) was > 500 µM. For the same molecule, the MIC ([15]; 48 h, read-out: MIC CP 48h) was > 500 µM, the MIC ([16]; 24 h, read-out: MIC EC 24h) was > 500 µM and the MIC ([16]; 48 h, read-out: MIC EC 48h) was > 500 µM. The MIC ([17]; 24 h, read-out: MIC SA 24h) was 500 µM (≈ 123 µg/mL), the MIC ([17]; 48 h, read-out: MIC SA 48h) was 500 µM (≈ 123 µg/mL) and the MIC [18, 24] was > 500 µM. The MIC [18, 25] was > 500 µM, the MIC ([19]; 24 h, read-out: MIC ACI 24h) was > 500 µM and the MIC ([19]; 48 h, read-out: MIC ACI 48h) was > 500 µM. For the same molecule, the IC50 (HepG2 cell line) was > 250 µM.
`O=C(Cc1cccc(Cl)c1)Nc1cccc(Cl)n1` [Compound 18] was tested, and the MIC ([1]; 24 h, read-out: MIC CA 24h) was > 500 µM, the MIC ([1]; 48 h, read-out: MIC CA 48h) was > 500 µM and the MIC ([2]; 24 h, read-out: MIC CK 24h) was > 500 µM. For the same molecule, the MIC ([2]; 48 h, read-out: MIC CK 48h) was > 500 µM, the “MIC KP 24h” value [3] was > 500 µM and the “MIC KP 48h” value [3] was > 500 µM. The MIC [4, 20] was > 500 µM, the MIC [4, 21] was > 500 µM and the MIC ([5]; 24 h, read-out: MIC SE 24h) was > 500 µM. The MIC ([5]; 48 h, read-out: MIC SE 48h) was > 500 µM, the MIC ([6]; 24 h, read-out: MIC PA 24h) was > 500 µM and the MIC ([6]; 48 h, read-out: MIC PA 48h) was > 500 µM. For the same molecule, the MIC [7, 22] was > 500 µM, the MIC [7, 23] was > 500 µM and the MIC [8] was 62.5 µg/mL (≈ 222 µM). For the same molecule, the MIC ([9]; 72 h, read-out: MIC TI 72h) was 500 µM (≈ 141 µg/mL), the MIC ([9]; 120 h, read-out: MIC TI 120h) was 500 µM (≈ 141 µg/mL) and the MIC ([10]; 24 h, read-out: MIC CT 24h) was > 500 µM. For the same molecule, the MIC ([10]; 48 h, read-out: MIC CT 48h) was > 500 µM, the MIC ([11]; Calculated from MIC (μg/mL)) was 55.6 µM and the MIC [11] was 15.6 µg/mL. The “SI (selectivity index)” value [11] was > 1.8, the MIC ([12]; 24 h, read-out: MIC MRSA 24h) was > 500 µM and the MIC ([12]; 48 h, read-out: MIC MRSA 48h) was > 500 µM. The MIC [13] was > 500 µg/mL, the MIC ([14]; 24 h, read-out: MIC EF 24h) was > 500 µM and the MIC ([14]; 48 h, read-out: MIC EF 48h) was > 500 µM. For the same molecule, the MIC ([15]; 24 h, read-out: MIC CP 24h) was > 500 µM, the MIC ([15]; 48 h, read-out: MIC CP 48h) was > 500 µM and the MIC ([16]; 24 h, read-out: MIC EC 24h) was > 500 µM. For the same molecule, the MIC ([16]; 48 h, read-out: MIC EC 48h) was > 500 µM, the MIC ([17]; 24 h, read-out: MIC SA 24h) was > 500 µM and the MIC ([17]; 48 h, read-out: MIC SA 48h) was > 500 µM. For the same molecule, the MIC [18, 24] was > 500 µM, the MIC [18, 25] was > 500 µM and the MIC ([19]; 24 h, read-out: MIC ACI 24h) was > 500 µM. For the same molecule, the MIC ([19]; 48 h, read-out: MIC ACI 48h) was > 500 µM and the IC50 (HepG2 cell line) was > 100 µM.
